Source: publication PMC10584170, “Machine learning-based phenotypic imaging to characterise the targetable biology of Plasmodium falciparum male gametocytes for the development of transmission-blocking antimalarials” (PLOS Pathogens, 2023)
pIC50: −log10 of the molar value. Where two headings read alike, the source gives them in different places.

How the values were obtained:
[1] = tested on: P. falciparum male gametocytes; test: P. falciparum Dual Gamete Formation Assay (PfDGFA), male readout (exflagellation); format: cell-based, Plasmodium falciparum NF54; details: for Selectivity Ratio M: HepG2 Tox50 versus male IC50; for pIC50: PfDGFA, 24 h incubation with gametocytes before induction, exflagellation readout, read-out: Male IC50; for HitlevelM: number of replicates with >50% inhibition in the male readout
How it was run: (§1)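 Day-14 NF54 gametocytes were incubated with compound for 24 h at 37°C under 1% O2/3% CO2/96% N2. Gametogenesis was triggered with ookinete medium (0.1 μM xanthurenic acid) plus Cy3-anti-Pfs25, and exflagellation was imaged by brightfield after cooling to 4°C then 28°C. Females were imaged by Pfs25 fluorescence 24 h later at 28°C.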

[2] = tested on: P. falciparum female gametocytes; test: P. falciparum Dual Gamete Formation Assay (PfDGFA), female readout (Pfs25-positive female gametes); format: cell-based, Plasmodium falciparum NF54; details: for Selectivity ratio F: HepG2 Tox50 versus female IC50; for pIC50: PfDGFA, 24 h incubation with gametocytes before induction, female gamete readout, read-out: Female IC50; for HitlevelF: number of replicates with >50% inhibition in the female readout
How it was run: as §1

HepG2 cells = test: HepG2 cytotoxicity counter-screen; details: cytotoxic activity against HepG2 cells
[3] = Plasmodium falciparum, PfDGFA at 2µM, 24h preincubation with gametocytes, average of replicates, read-out: Average inhibition male (%)
[4] = Plasmodium falciparum, PfDGFA at 2µM, 24h preincubation with gametocytes, replicate R1, read-out: % inhibition male (individual replicates) R1
[5] = Plasmodium falciparum, PfDGFA at 2µM, 24h preincubation with gametocytes, replicate R2, read-out: % inhibition male (individual replicates) R2
[6] = Plasmodium falciparum, PfDGFA at 2µM, 24h preincubation with gametocytes, replicate R3, read-out: % inhibition male (individual replicates) R3
[7] = Plasmodium falciparum, PfDGFA at 2µM, 24h preincubation with gametocytes, replicate R4, read-out: % inhibition male (individual replicates) R4
[8] = Plasmodium falciparum, PfDGFA at 2µM, 24h preincubation with gametocytes, average of replicates, read-out: Average inhibition female (%)
[9] = Plasmodium falciparum, PfDGFA at 2µM, 24h preincubation with gametocytes, replicate R1, read-out: % inhibition female (individual replicates) R1
[10] = Plasmodium falciparum, PfDGFA at 2µM, 24h preincubation with gametocytes, replicate R2, read-out: % inhibition female (individual replicates) R2
[11] = Plasmodium falciparum, PfDGFA at 2µM, 24h preincubation with gametocytes, replicate R3, read-out: % inhibition female (individual replicates) R3
[12] = Plasmodium falciparum, PfDGFA at 2µM, 24h preincubation with gametocytes, replicate R4, read-out: % inhibition female (individual replicates) R4
[13] = Plasmodium falciparum, 2µM, 24h preincubation with gametocytes, average of replicates, read-out: Average inhibition male (%)
[14] = Plasmodium falciparum, 2µM, 24h preincubation with gametocytes, replicate R1, read-out: % inhibition male (individual replicates) R1
[15] = Plasmodium falciparum, 2µM, 24h preincubation with gametocytes, replicate R2, read-out: % inhibition male (individual replicates) R2
[16] = Plasmodium falciparum, 2µM, 24h preincubation with gametocytes, replicate R3, read-out: % inhibition male (individual replicates) R3
[17] = Plasmodium falciparum, 2µM, 24h preincubation with gametocytes, replicate R4, read-out: % inhibition male (individual replicates) R4
[18] = Plasmodium falciparum, 2µM, 24h preincubation with gametocytes, average of replicates, read-out: Average inhibition female (%)
[19] = Plasmodium falciparum, 2µM, 24h preincubation with gametocytes, replicate R1, read-out: % inhibition female (individual replicates) R1
[20] = Plasmodium falciparum, 2µM, 24h preincubation with gametocytes, replicate R2, read-out: % inhibition female (individual replicates) R2
[21] = Plasmodium falciparum, 2µM, 24h preincubation with gametocytes, replicate R3, read-out: % inhibition female (individual replicates) R3
[22] = Plasmodium falciparum, 2µM, 24h preincubation with gametocytes, replicate R4, read-out: % inhibition female (individual replicates) R4
[23] = PfDGFA at 2µM, 24h preincubation with gametocytes, average of replicates
[24] = PfDGFA at 2µM, 24h preincubation with gametocytes, replicate R1
[25] = PfDGFA at 2µM, 24h preincubation with gametocytes, replicate R3
[26] = PfDGFA at 2µM, 24h preincubation with gametocytes, replicate R4
[27] = 2µM, 24h preincubation with gametocytes, average of replicates
[28] = 2µM, 24h preincubation with gametocytes, replicate R1
[29] = 2µM, 24h preincubation with gametocytes, replicate R4
[30] = 2µM, 24h preincubation with gametocytes, replicate R3
[31] = 2µM, 24h preincubation with gametocytes prior to induction of gametogenesis, average of replicates
[32] = 2µM, 24h preincubation with gametocytes prior to induction of gametogenesis, replicate R1
[33] = 2µM, 24h preincubation with gametocytes prior to induction of gametogenesis, replicate R3
[34] = 2µM, 24h preincubation with gametocytes prior to induction of gametogenesis, replicate R4

SMILES | pIC50 ([1]; Plasmodium falciparum) | pIC50 ([2]; Plasmodium falciparum) | pIC50 [1] | pIC50 [2] | Selectivity Ratio M [1] | HitlevelM ([1]; 2µM) | Selectivity ratio F [2] | HitlevelF ([2]; 2µM) | Tox50 (HepG2 cells) [µM] | inhibition at 2 µM [1, 13] [%] | inhibition at 2 µM [1, 14] [%] | inhibition at 2 µM [1, 15] [%] | inhibition at 2 µM [1, 16] [%] | inhibition at 2 µM [1, 17] [%] | inhibition at 2 µM [2, 18] [%] | inhibition at 2 µM [2, 19] [%] | inhibition at 2 µM [2, 20] [%] | inhibition at 2 µM [2, 21] [%] | inhibition at 2 µM [2, 22] [%] | also measured
CCc1cc2c(Sc3nnc(N)s3)ncnc2s1 [TCMDC-123993] | 6.01 | 6.13 | – | – | 62.08 | 4 | 82.32 | 3 | 61 | – | – | – | – | – | – | – | – | – | – | inhibition at 2 µM [1, 3]: 88.1%; inhibition at 2 µM [1, 4]: 91.2%; inhibition at 2 µM [1, 5]: 88.6%; inhibition at 2 µM [1, 6]: 87.9%; inhibition at 2 µM [1, 7]: 84.9%; inhibition at 2 µM [2, 8]: 62.7%; inhibition at 2 µM [2, 9]: 49.4%; inhibition at 2 µM [2, 10]: 83%; inhibition at 2 µM [2, 11]: 66.2%; inhibition at 2 µM [2, 12]: 52.3%
[O-][s+]1c(Cl)c(-c2ccc(Cl)cc2)c2ccc(Cl)cc21 (centres unmarked) [TCMDC-124011] | 6.85 | 6.85 | – | – | 123.92 | – | 125.38 | – | 17.6 | 99.1 | 99.4 | 99.6 | 98.6 | 98.9 | 46.7 | 29.4 | 65.7 | 37 | 54.7 | –
CCCCOc1ccc(C(=O)C(CCC(CNC(C)(C)C)C(=O)c2ccc(OCCCC)cc2)CNC(C)(C)C)cc1.Cl (centres unmarked) [TCMDC-124120] | – | – | 5.82 | 5.39 | 2.27 | 3 | 0.84 | 2 | 3.4 | – | – | – | – | – | – | – | – | – | – | Average inhibition male (%) [1, 23]: 78.6%; % inhibition male (individual replicates) R1 [1, 24]: 81.6%; % inhibition male (individual replicates) R3 [1, 25]: 47.4%; % inhibition male (individual replicates) R4 [1, 26]: 92.9%; Average inhibition female (%) [2, 23]: 46.8%; % inhibition female (individual replicates) R1 [2, 24]: 36.1%; % inhibition female (individual replicates) R3 [2, 25]: 20.3%; % inhibition female (individual replicates) R4 [2, 26]: 72.1%
CCN1CCN(c2ccc(Nc3c4ccccc4nc4ccccc34)cc2)CC1 [TCMDC-124255] | – | – | 5.75 | 5.16 | 8.44 | 4 | 2.14 | 0 | 14.96 | – | – | – | – | – | – | – | – | – | – | Average inhibition male (%) [1, 23]: 77.2%; % inhibition male (individual replicates) R1 [1, 24]: 84.6%; % inhibition male (individual replicates) R3 [1, 25]: 78.3%; % inhibition male (individual replicates) R4 [1, 26]: 87.4%; Average inhibition female (%) [2, 23]: -4.4%; % inhibition female (individual replicates) R1 [2, 24]: -2.2%; % inhibition female (individual replicates) R3 [2, 25]: -22.1%; % inhibition female (individual replicates) R4 [2, 26]: 3.0%
O=C1Nc2ccccc2C1=NNC(=S)N1CCOCC1 [TCMDC-124263] | 6.03 | 5.75 | – | – | 49.26 | – | 25.94 | – | 46.3 | 98.7 | 98.4 | 100 | 99.2 | 96.9 | 55.9 | 38.4 | 72 | 48.4 | 64.6 | –
Cl.Cl.c1ccc2c(NCCCCCCNc3c4ccccc4nc4ccccc34)c3ccccc3nc2c1 [TCMDC-124285] | – | – | 5.77 | 5.50 | 3.7 | – | 1.95 | – | 6.2 | – | – | – | – | – | – | – | – | – | – | Average inhibition male (%) [1, 27]: 93.2%; % inhibition male (individual replicates) R1 [1, 28]: 96.3%; % inhibition male (individual replicates) R4 [1, 29]: 88.4%; Average inhibition female (%) [2, 27]: 50.4%; % inhibition female (individual replicates) R1 [2, 28]: 48.2%; % inhibition female (individual replicates) R3 [2, 30]: 44.8%; % inhibition female (individual replicates) R4 [2, 29]: 50.1%
Cl.c1ccc2c(NCCCCCCCCCNc3c4ccccc4nc4ccccc34)c3ccccc3nc2c1 [TCMDC-124286] | – | – | 5.71 | 5.32 | 3.22 | – | 1.31 | – | 6.29 | – | – | – | – | – | – | – | – | – | – | Average inhibition male (%) [1, 31]: 61.5%; % inhibition male (individual replicates) R1 [1, 32]: 79.2%; % inhibition male (individual replicates) R3 [1, 33]: 1.0%; % inhibition male (individual replicates) R4 [1, 34]: 84.9%; HitlevelM ([1]; 2µM, 24h preincubation): 3; Average inhibition female (%) [2, 31]: 43.1%; % inhibition female (individual replicates) R1 [2, 32]: 36.0%; % inhibition female (individual replicates) R3 [2, 33]: 18.9%; % inhibition female (individual replicates) R4 [2, 34]: 71.3%; HitlevelF ([2]; 2µM, 24h preincubation): 1
O=C(c1ccc([N+](=O)[O-])o1)N1CCC(Cc2ccc(C(F)(F)F)cc2)CC1 [TCMDC-124805] | 6.40 | 6.36 | – | – | 70.69 | – | 64.48 | – | 28.45 | 101 | 98.9 | 100 | 102 | 102 | 55.8 | 35.5 | 62.7 | 38.2 | 86.7 | –

Continued, in another order:

pIC50 ([1]; Plasmodium falciparum) | pIC50 ([2]; Plasmodium falciparum) | pIC50 [1] | pIC50 [2] | SMILES | Selectivity Ratio M [1] | HitlevelM ([1]; 2µM) | Selectivity ratio F [2] | HitlevelF ([2]; 2µM) | Tox50 (HepG2 cells) [µM] | inhibition at 2 µM [1, 13] [%] | inhibition at 2 µM [1, 14] [%] | inhibition at 2 µM [1, 15] [%] | inhibition at 2 µM [1, 16] [%] | inhibition at 2 µM [1, 17] [%] | inhibition at 2 µM [2, 18] [%] | inhibition at 2 µM [2, 19] [%] | inhibition at 2 µM [2, 20] [%] | inhibition at 2 µM [2, 21] [%] | inhibition at 2 µM [2, 22] [%] | also measured
6.40 | 6.51 | – | – | C=CCN(C(=O)c1ccc(Cl)c([N+](=O)[O-])c1)c1nc(-c2ccccc2)cs1 [TCMDC-124436] | 69.29 | – | 88.48 | – | 27.57 | 99.6 | 99.4 | 98.5 | 102 | 98.2 | 53 | 34.2 | 85.7 | 53.1 | 38.9 | –
6.02 | < 5.00 | – | – | Cc1cc(Nc2ccncc2)n2nc(C)c(-c3ccc(Cl)cc3)c2n1 [TCMDC-124478] | 68.63 | – | 6.55 | – | 65.53 | 95.5 | 96.8 | 90.6 | 96.8 | 98 | 2.4 | -1.3 | -8.5 | 24.2 | -4.9 | –
5.85 | 6.13 | – | – | Cc1sc2ncnc(Sc3nnc(N)s3)c2c1C [TCMDC-124542] | 46.96 | 3 | 89.35 | 4 | 66.05 | – | – | – | – | – | – | – | – | – | – | inhibition at 2 µM [1, 3]: 69.3%; inhibition at 2 µM [1, 4]: 92.1%; inhibition at 2 µM [1, 5]: 95.8%; inhibition at 2 µM [1, 6]: 87%; inhibition at 2 µM [1, 7]: 2.3%; inhibition at 2 µM [2, 8]: 86.8%; inhibition at 2 µM [2, 9]: 95.8%; inhibition at 2 µM [2, 10]: 96.9%; inhibition at 2 µM [2, 11]: 102%; inhibition at 2 µM [2, 12]: 52.6%
– | – | 5.70 | 5.94 | O=C(O)C(=O)O.Oc1c(CN2CCC(Cc3ccccc3)CC2)cc(Cl)c2cccnc12 [TCMDC-124594] | 2.09 | – | 3.66 | – | 4.17 | – | – | – | – | – | – | – | – | – | – | Average inhibition male (%) [1, 27]: 92.4%; % inhibition male (individual replicates) R1 [1, 28]: 97.5%; % inhibition male (individual replicates) R3 [1, 30]: 93.3%; % inhibition male (individual replicates) R4 [1, 29]: 86.9%; Average inhibition female (%) [2, 27]: 49.8%; % inhibition female (individual replicates) R1 [2, 28]: 37.8%; % inhibition female (individual replicates) R3 [2, 30]: 58.8%; % inhibition female (individual replicates) R4 [2, 29]: 51.4%
